Values of other authors, collected in patent publication US20240315962A1, “EXTENDED RELEASE COMPOSITIONS COMPRISING PYRIDOSTIGMINE” (priority 2020, published 2024).

**Q.** With `CN(C)C(=O)Oc1ccc[n+](C)c1` [pyridostigmine] as the compound, how does the bioavailability (NDA #020414) read?
**A.** The bioavailability was 10-20%.

**Q.** And the elimination half-life (oral)?
**A.** Its elimination half-life is 3 to 5 h.

**Q.** And the “time-to-maximum peak plasma concentration” value (oral)?
**A.** Its value is 1 to 2 h.
